Where a name gives a salt, the structure may show the parent alone.
What was measured:
[1] = Estimated t90% (time for 10% hydrolysis) in dilute aqueous solution at 25° C; type: physicochemical; conditions: extrapolated from rate constants at pH 2 and 8 (0.01 ionic strength buffers) to the pH at which hydrolysis is a minimum
Procedure: The solution stability of the compounds of Formula I varies to some extent depending on the nature of X and Y and the values for m and n. Shown in Table I are estimates of t90% (time for 10% hydrolysis) of various derivatives in dilute aqueous solutions at 25° C. These estimates are based on an extrapolation of the rate constants for acid and base catalyzed hydrolysis to the pH at which hydrolysis is a minimum. The rate constants for acid and base catalyzed hydrolysis were determined at pH 2 and 8, respectively, in 0.01 ionic strength buffers.

[2] = Base catalyzed hydrolysis rate in concentrated versus dilute solution; type: physicochemical; conditions: 0.11M solution versus 5×10^-4 M solution
From the text: The actual shelf-life of formulations of the above compounds would be expected to differ from the above estimates for two reasons: (1) The solubility of the parent corticosteroid formed on hydrolysis may be exceeded prior to 10% degradation of the ester. Micelle formation by the intact prodrugs of Formula I results in solubilization of free corticosteroid thereby prolonging shelf-life. […]. The degree of solubilization varies with the ester concentration, nature of the pro-moiety, and the structure of the corticosteroid. (2) Micelle formation by the intact prodrug in concentrated solutions results in stabilization of the ester linkage toward base catalyzed hydrolysis. For example, the base catalyzed hydrolysis rate in a 0.11M solution of the compound of Example 1 is less than one-half the rate in a 5×10^-4 M solution.

[3] = M. Kawamura et al., Yakugaku Zasshi, 91, 871 (1971); cited from earlier work

With `C[C@H]1C[C@@H]2[C@H]([C@@H](O)C[C@@]3(C)[C@H]2CC[C@]3(O)C(=O)COC(=O)CCC(=O)N(C)CCS(=O)(=O)O)[C@@]2(C)C=CC(=O)C=C12` [Example 1, N-Methyl taurine amide of methylprednisolone 21-hemisuccinate (Na salt)] as the molecule, how does the “Estimated t90% (time for 10% hydrolysis)” value [1] read?
The value was 3.9 years.

What about the “base catalyzed hydrolysis rate relative to the rate in dilute solution” value [2] of the same molecule?
Its value is “less than one-half”.

For `C[C@H]1C[C@@H]2[C@H]([C@@H](O)C[C@@]3(C)[C@H]2CC[C@]3(O)C(=O)COC(=O)CCCCCCC(=O)NCCS(=O)(=O)O)[C@@]2(C)C=CC(=O)C=C12` [Example 2, Taurine amide of methylprednisolone 21-suberate (Na salt)], which “Estimated t90% (time for 10% hydrolysis)” value [1] is on record?
The value was 3.9 years.

Which “Estimated t90% (time for 10% hydrolysis)” value [1] does the source give for `C[C@H]1C[C@@H]2[C@H]([C@@H](O)C[C@@]3(C)[C@H]2CC[C@]3(O)C(=O)COC(=O)CCCCCCC(=O)N(C)CCS(=O)(=O)O)[C@@]2(C)C=CC(=O)C=C12` [Example 3, N-Methyltaurine amide of methylprednisolone 21-hemisuberate (Na salt)] here?
The value was 4.1 years.

For `C[C@]12CCC(=O)C=C1CC[C@@H]1[C@@H]2[C@@H](O)C[C@@]2(C)[C@H]1CC[C@]2(O)C(=O)COS(=O)(=O)O` [21-sulfate of hydrocortisone], which activity in mice [3] is on record?
The activity in mice was “inactive”.

From patent US4472392A, “Sulfonate containing ester prodrugs of corticosteroids” (The Upjohn Company, priority 1983, dated 1984)
